Experimental data from patent US4442300A, “Therapeutically active compounds” (Aktiebolaget Draco, priority 1980, dated 1984).
Several values for one entry are separate records, joined by “and”; a condition that tells them apart may be missing. Equal entries are not always repeated. Entries after “also recorded” stand apart in the source; their conditions may differ. Where two headings read alike, the source gives them in different places.

Assays:
[1] = Duration of serum levels of terbutaline after oral administration to unanaesthetized dogs (test A); type: in vivo, dog (Beagle); settings: p.o., >= 2 ng/ml serum
Experimental: A. Duration of serum levels of terbutaline after administration of compounds of the invention to unanaesthetized dogs
(§1) Five dogs (Beagle, .male., 13-18 kg) have been used repeatedly in the study. Each dog was used at most once a week. Food was withheld from the animals the night before the experiment (water ad libitum). The test compound was solved or suspended in 8 ml of distilled water, and delivered into the back of the mouth by use of a syringe and a short tube. This oral supply was followed by a water rinse of 8 ml.
The blood was collected from the cephalic veins in the forelegs by use of evacuated tubes. The esterase inhibitor diisopropylfluophosphate (DFP) was added, the samples centrifugated (+5°) and the most amount of terbutaline in plasma determined by a massfragmentographic analysis method.
(§2) The amounts of the test substances to be administered were selected so that the level of terbutaline, when administered per se, corresponds to the serum levels obtained and found effective in patients at clinical use, that is a level of terbutaline of at least 2 ng/ml serum for 6 to 8 hours. The doses of the test substances of the invention were selected so that the serum levels of terbutaline obtained would correspond approximately with the serum levels obtained after administration of terbutaline per se.

[2] = test system: histamine-induced bronchospasm; assay: Protecting effect against histamine-induced bronchospasm after oral administration (test C2); type: in vivo, guinea-pigs, Dunkin-Hartley strain; settings: for ED50: Cavia porcellus, 0.05 h, histamine aerosol, read-out: Dose protecting 50% of the test animals for more than 3 minutes (ED50)
Experimental: Male guinea-pigs, Dunkin-Hartley strain, 150-200 g, were used in the study. The animals were starved for about 15 hours (water ad libitum) before the administration, by a stomach tube, of test compound or vehicle (controls). To establish an adequate time period between administration and histamine exposure, the maximum plasma level of terbutaline produced from the hydrolysis of the given pro-drugs of terbutaline was determined. Thus, blood samples (in pre-experimental series) were collected from guinea-pigs at different times after the administration of the test compound and the plasma level of terbutaline was determined by a massfragmentographic assay. A peak in the plasma terbutaline was noted 50-60 minutes after the administration, and this time was selected as time for start of histamine exposure.
The histamine aerosol was generated by Bird inline nebulizers from a solution containing 0.02% histamine-HCl and 3% glycerole. The protecting effect was estimated from the delay in appeareance of signs of anoxia in drug-treated animals. […] Drug-treated guinea-pigs without any signs of respiratory influence from the histamine during these first 3 minutes were denoted as protected.

[3] = test system: heart rate; assay: In vivo effect of the test compounds on the heart rate in dogs (test D2); design: species or system dog (Beagle); settings: oral; for Slope of line, increase in heart rate vs. logarithm of corresponding serum conc.: terbutaline 0.01-0.1 mg/kg, compound I 0.3-2.7 mg/kg
Experimental: as §1
The blood was collected from the cephalic veins in the forelegs by use of evacuated tubes. The esterase inhibitor diisopropylfluophosphate (DFP) was added, the samples centrifugated (+5°) and the amount of terbutaline in plasma determined by a massfragmentographic analysis method. The serum level of terbutaline indicates the degree of bronchospasmolytic effect of the test compounds, provided terbutaline is solely responsible for the bronchospasmolytic effect. This method does, however, not measure the intrinsic activity of the test compounds.
as §2
The heart rate was determined by a stethoscope (the mean of three determinations during a 5-minute periode) before the administration of drug and before each blood sampling.
The relative effect of the test compounds on the heart rate of the test animals was illustrated by plotting in a diagram the increase in heart rate measured at a certain serum concentration of terbutaline versus the logarithm of the said terbutaline concentration in serum. Only values before and up to the maximal increase in heart rate were used. This method will produce a graph consisting of a substantially straight line. […]

[4] = test system: isolated auricles from guinea-pig heart; assay: In vitro test on isolated guinea-pig auricles (test D1); design: species or system strain Dunkin Hartley; settings: for Emax: Cavia porcellus; for any chronotropic or inotropic effect: isolated auricles, in words; for potentiating or inhibiting effect on the chronotropic and inotropic effect of terbutaline: same concentration as terbutaline
Experimental: Male guinea-pigs strain Dunkin Hartley (400-500 g) were used. After bleeding and removal of the heart the auricles were dissected free from the ventricular part and submerged into carbogen aerated Krebs solution of 37°. The frequency and force of the spontaneously beating preparation was recorded by a Grass transducer FTO3. In the polygraph (Grass 7D) the signals from the isometric transducer passed a trigger function from the drive amplifier to the tachograph to record the rate.
The esterase inhibitor eserine was added to a concentration of 1.10^-6 mol/l in the organ bath before the drugs to be tested were added. The intrinsic activity of the test compounds on the heart preparation, that is their effect on heart rate (chronotropic effect) and their effect on the force of the heart beats (inotropic effect), and their possible interaction with terbutaline was studied.

[5] = test system: isolated tracheal muscle; assay: Bronchodilating effect in vitro on isolated guinea-pig trachea (test C1); settings: for Potentiating or inhibiting effect on the bronchodilating effect of terbutaline: 5 min pretreatment with test compound; for EC50: Cavia porcellus; for blockade of the bronchodilating effect by propranolol: propranolol 3.10^-6 mol/l (concentration given for I and II)
Experimental: The trachea from guinea-pigs was dissected out, cut spirally and transferred to a 10 ml organ bath containing Krebs solution of 37° and aerated with carbogen. The tracheal strip was contracted by pilocarpine (4.10^-6 mol/l) producing a tension of about 1.5 g. Isometric recording was made by use of a transducer FTO3 and a Grass polygraph 7D. Before the administration of the test compound the esterase inhibitor eserin was added to the bath in a concentration of 1.10^-6 mol/l. The concentration of the test substances which produces 50% relaxation (EC50) of the pilocarpine contracted trachea was recorded as well as potentiating or inhibiting influence of the test substances of the invention on the relaxing effect of terbutaline. In this last mentioned test the muscle preparation was pretreated with the test compounds during 5 minutes, before the response of terbutaline was recorded.

[6] = test system: histamine evoked rise of the insufflation pressure; assay: Duration of bronchospasmolytic activity after local administration via aerosol, histamine-induced bronchoconstriction (test B); type: in vivo, Guinea-pigs, strain Dunkin-Hartley
Experimental: Guinea-pigs, strain Dunkin-Hartley, of either sex, weighing 500-900 g were anaesthetized by i.p. injection and i.v. infusion of pentobarbital. The animals were artifically ventilated with a Braun constant volume respiration pump giving 70 strokes/min and a stroke volume of 0.75 ml/100 g body weight. Intratracheal pressure (insufflation pressure) was measured by use of a T-junction on the tracheal cannula connected to a Statham pressure transducer P23BC. An increase in intratracheal pressure, indicating bronchoconstriction, was elicited by i.v. injection (v. jugularis) of histamine. The constricting agent was injected every 10 minutes by a timer-controlled perfusor in a dose giving about 80% of the maximum contractile response (1-2.10^-8 mol/kg). The bronchospasmolytic drugs to be tested were solved in aq. dest. containing 3% glycerol and nebulized by use of a Bird Inline Nebulizer (air pressure 0.2 MPa; droplet spectrum around 1 micron). The generated aerosol was lead through the respirator and tracheal cannula. Inhalation of drug was going on during periods of 30 min. The resulting bronchodilator effect was calculated from the percentage reduction of the histamine evoked rise of the insufflation pressure.
The concentration of the test substance in the solved composition that when nebulized produced 50% inhibition of the increased tracheal pressure (ED50) was measured. […]

[7] = cited from earlier work; for duration of bronchospasmolytic activity, in words: compared with terbutaline or salbutamol
[8] = read-out: chromotropic effect on isolated auricle (relative values)
[9] = read-out: inotropic effect on isolated auricle (relative values)
[10] = isolated trachea, Table 3, read-out: concentration producing a bronchodilating effect
[11] = pilocarpine contracted trachea (4.10^-6 mol/l), eserin 1.10^-6 mol/l, read-out: Concentration of test substance producing 50% relaxation of trachea (EC50)

Row | SMILES | protection against histamine-induced bronchospasm on molar basis relative to terbutaline [2] | ED50 [2] | Slope of line, increase in heart rate vs. logarithm of corresponding serum conc. [3] | Emax [4, 8] [%] | Emax [4, 9] [%] | any chronotropic or inotropic effect [4] | potentiating or inhibiting effect on the chronotropic and inotropic effect of terbutaline [4] | Potentiating or inhibiting effect on the bronchodilating effect of terbutaline [5] | EC50 [5, 10] [µM] | EC50 [5, 11] [µM] | concentration range for bronchodilating effect relative to terbutaline ([5]; isolated trachea) | blockade of the bronchodilating effect by propranolol [5] | duration of bronchospasmolytic activity, in words [7] | further results
1 | CC(C)(C)NCC(O)c1cc(OC(=O)c2ccc(OC(=O)C(C)(C)C)cc2)cc(OC(=O)c2ccc(OC(=O)C(C)(C)C)cc2)c1 (stereo not drawn) [Compound I] | about equally effective as terbutaline | 1.1 mg/kg and 1.6 µmol/kg | 0.53 | 0 | 0 | none | No potentiating or inhibiting effect | none and No potentiating or inhibiting activity | ~1.8 | 1.8 ± 0.6 | about 9 times higher | not blocked |  | time with clinically useful serum level of terbutaline relative to terbutaline [1]: at least twice as long; time with a serum level of terbutaline of 2 ng/ml or more ([1]; listed as compound I): 16 h; increase in heart rate relative to terbutaline ([3]; dogs): relatively much lower; also recorded: considerably reduced; onset of effect [6]: comparable to that produced by terbutaline; duration of bronchospasmolytic effect compared with terbutaline ([6]; at ED50 dose level): about three times longer
2 | CC(C)C(=O)Oc1ccc(C(=O)Oc2cc(OC(=O)c3ccc(OC(=O)C(C)C)cc3)cc(C(O)CNC(C)(C)C)c2)cc1 (stereo not drawn) [II] | about equally effective as terbutaline | 1.1 mg/kg and 1.6 µmol/kg |  | 0 | 0 | none | No potentiating or inhibiting effect | none and No potentiating or inhibiting activity | ~1.8 | 1.8 ± 0.6 | about 9 times higher | not blocked |  | 
3 | Cc1ccc(C(=O)Oc2ccc(C(O)CNC(C)(C)C)cc2OC(=O)c2ccc(C)cc2)cc1 (stereo not drawn) [bitolterol] |  |  |  |  |  |  |  |  |  |  |  |  | comparable with that of salbutamol | 
4 | CC(C)(C)NCC(O)c1ccc(O)c(CO)c1 (stereo not drawn) [salbutamol] |  |  |  |  |  |  |  |  |  |  |  |  | about equal to the duration of terbutaline | 
5 | CC(C)(C)NCC(O)c1cc(O)cc(O)c1 (stereo not drawn) [terbutaline, reference compound] |  |  | 1.04 | 100 | 100 |  |  |  |  |  |  | blocked |  | serum concentration necessary for desired therapeutic activity ([7]; Hornblad et al.): at least 2 ng/ml
6 | CC(C)(C)NCC(O)c1cc(OC(=O)c2ccc(OC(=O)C(C)(C)C)cc2)cc(OC(=O)c2ccc(OC(=O)C(C)(C)C)cc2)c1 (stereo not drawn) [test substance of the invention] |  |  |  |  |  |  |  |  |  |  |  |  |  | time with a serum level of terbutaline of 2 ng/ml or more [1]: about 16 hours
